One compound from patent publication US12697315B2, “Treatment for interstitial lung disease” (United Therapeutics Corporation, priority 2020, dated 2026) can be followed below.

Data set [1] relates to patients with interstitial lung disease and pulmonary hypertension. In words: 6-minute walk test, INCREASE
Format: in vivo, human. As to the method:
We enrolled patients with interstitial lung disease and pulmonary hypertension (documented by right heart catheterization) in a multicenter, randomized, double-blind, placebo-controlled, 16-week trial. Patients were assigned in a 1:1 ratio to receive inhaled treprostinil, administered by means of an ultrasonic, pulsed-delivery nebulizer in up to 12 breaths (total, 72 μg) four times daily, or placebo. The primary efficacy end point was the difference between the two treatment groups in the change in peak 6-minute walk distance from baseline to week 16. Secondary end points included the change in N-terminal pro-B-type natriuretic peptide (NT-proBNP) level at week 16 and the time to clinical worsening.
The 6-minute walk test was performed and laboratory data were obtained at baseline and at weeks 4, 8, 12, and 16, or at the time of early discontinuation of treprostinil or placebo. Each 6-minute walk test was performed 10 to 60 minutes after the most recent dose of active drug or placebo, which is the time of peak plasma treprostinil exposure. A trough test was performed at week 15 at least 4 hours after the participant received a dose of treprostinil or placebo and at least 24 hours before the week 16 test. Pulse oximetry was performed immediately before, during, and after each 6-minute walk test. Measurement of N-terminal pro-B-type natriuretic peptide (NT-proBNP) levels and pulmonary function tests were performed at baseline and at weeks 8 and 16 (or at early discontinuation) after the patients recovered from the 6-minute walk test. The St. George's Respiratory Questionnaire (SGRQ), a quality-of-life measure, was completed at baseline and week 16 or at the time of early discontinuation.
The primary end point of the trial was the difference between the two groups in the change in peak 6-minute walk distance from baseline to week 16. Secondary efficacy end points were analyzed in the following hierarchical testing order: the change in NT-proBNP level from baseline to week 16, the time to clinical worsening, the change in 6-minute walk distance at peak plasma treprostinil level at week 12, and the change in 6-minute walk distance at trough treprostinil level at week 15. The time to clinical worsening was evaluated from the time of randomization until the patient's withdrawal from the trial and was defined as the time until the occurrence of any one of the following events: hospitalization for a cardiopulmonary indication, a decrease in 6-minute walk distance greater than 15% from baseline that was directly related to the disease under study at two consecutive visits and at least 24 hours apart, death from any cause, or lung transplantation.
For the primary efficacy analysis, the change in 6-minute walk distance was analyzed by mixed-model repeated-measures methods, under the assumption that missing data were missing at random. The model included the change from baseline to peak 6-minute walk distance as the dependent variable, with treatment, week, and treatment-by-week interaction as fixed effects, and the baseline 6-minute walk distance as a covariate. A sensitivity analysis for the primary end point was performed by means of a multiple imputation approach with a multivariate normal imputation model according to the Markov chain Monte Carlo method. The imputation model included treatment group, all scheduled visits, the patient's sex, and the patient's age at randomization. If the result for the primary efficacy end point was significant, secondary efficacy end points were to be evaluated according to a hierarchical testing procedure. Confidence intervals have not been adjusted for multiplicity and can-not be used to infer definitive treatment effects for secondary efficacy end points.

The test system is the same in data set [2]. The following applies: human, in vivo, 16 weeks.
Description: Safety assessments consisted of the development of AEs, vital signs, clinical laboratory parameters, ECG parameters, hospitalizations due to cardiopulmonary indications, exacerbations of underlying lung disease, and oxygenation.
Safety end points included adverse events, abnormal laboratory results, oxygenation as measured by pulse oximetry (Spo2) and supplemental oxygen requirement, changes in pulmonary function test results, hospitalization for a cardiopulmonary indication, and investigator-reported exacerbations of underlying lung disease, defined as acute, clinically significant respiratory deterioration characterized by evidence of new widespread alveolar abnormality.
Setting [3] is: vs placebo, listed as Inhaled Treprostinil.
[4] abbreviates: vs placebo, listed as inhaled treprostinil.

Take `CCCCC[C@H](O)CC[C@@H]1[C@H]2Cc3cccc(OCC(=O)O)c3C[C@H]2C[C@H]1O` [Inhaled treprostinil, treprostinil]: the “Change in peak 6-minute walk distance from baseline to wk 16” value in data set [1] (LS mean ± SE, MMRM) turned out to be 21.08 ± 5.12 m. In addition, in data set [1] (mean ± SE), the “Least-squares mean change in peak 6-minute walk distance from baseline to wk 12” value was determined as 18.77 ± 4.99 m. For the same compound, in data set [1] (mean ± SE), the “Least-squares mean change in trough 6-minute walk distance from baseline to wk 15” value came out at 9.3 ± 5.5 m. Also, the “Treatment effect, least-squares mean difference in change in peak 6-minute walk distance, baseline to wk 16” value in data set [1] (vs placebo, MMRM, listed as Inhaled Treprostinil) amounted to 31.12 ± 7.25 m; in data set [1] (vs placebo, MMRM, listed as inhaled treprostinil), 31.12 m; in data set [1] (vs placebo, MMRM, listed as treprostinil) it was 31.12 m. The “Treatment effect, least-squares mean difference in peak 6-minute walk distance, baseline to wk 12” value is 31.29 ± 7.07 m in data set [1] (setting [3]) and 31.29 m in data set [1] (setting [4]). Also, the “Treatment effect, least-squares mean difference in trough 6-minute walk distance, baseline to wk 15” value in data set [1] (setting [3]) came out at 21.99 ± 7.7 m; in data set [1] (setting [4]) it was 21.99 m. In addition, in data set [1] (vs placebo, multiple imputation, Markov chain Monte Carlo), the “between-group difference in change from baseline in peak 6-minute walk distance at week 16” value worked out at 30.97 m. Moreover, in data set [2], the “Serious adverse event: Rhinovirus infection” value came out at 1 n.
